Experimental data as given in patent US10231908B2, “Method of reducing hair loss associated with chemotherapy” (Galderma S.A., priority 2015, dated 2019).
Entries after “also recorded” stand apart in the source; their conditions may differ. Structures can show the parent of a compound that is named as a salt.

Experiments:
[1] = system: cyclophosphamide-induced alopecia in C57B16 mice; assay: Cyclophosphamide-induced alopecia in mice after anagen induction by depilation; format: in vivo; conditions: for % of alopecia versus control: read on day 15
[2] = epinephrine 450 mM topical plus CYP at day 9

Row | Structure (SMILES) | % of alopecia versus control ([1]; epinephrine 450 mM topical, 20 min before and 10, 40 and 60 min after CYP 120 mg/kg i.p. at day 9, hydrochloride) | body weight of mice [2] | % of alopecia versus control ([1]; brimonidine 35 mM (1%) topical, 100 μL, at t-2 hours and repeated 2 hours later, CYP 120 mg/kg i.p. at day 9) | hair shedding in dorsal depilated area (representative pictures) ([1]; topical brimonidine, CYP-injected mice, day 15 after depilation)
1 | CNC[C@H](O)c1ccc(O)c(O)c1 [Epinephrine, Epinephrine hydrochloride] | worsened it; also recorded: worsened alopecia | temporarily decreased the body weight |  | 
2 | Brc1c(NC2=NCCN2)ccc2nccnc12 [Brimonidine, Brimonidine tartrate] |  |  | prevents alopecia; also recorded: prevented hair loss | more hairs did not shed
